Measured values: patent US20140187570A1, “NOVEL FORMULATIONS OF PYRIMETHANIL, AND THEIR USE IN TREATMENT OF CROPS” (XEDA INTERNATIONAL, priority 2011, published 2014)

Experiments:
Geotrichum candidum = assay: Fungicidal activity on treated oranges (Example 5); format: in vivo; details: oranges treated with pyrimethanil alone
Description: Oranges are separated into three lots, and are treated as follows: • Lot 1 (control): oranges not treated; • Lot 2: oranges treated with pyrimethanil alone; • Lot 3: oranges treated with 250 g of the formulation according to Example 2 diluted in one hectolitre of water.

[1] = system: Monilinia fructicola strain resistant to pyrimethanil; assay: In vitro growth inhibition of the halo on PDA Petri dishes, resistant strain; format: cell-based; details: dose 250 ml/hl
Description: The object of the study was to determine the efficacy of combinations according to the invention against the phytopathogenic fungus Monilinia fructicola, compared to pyrimethanil alone.
The efficacy of the combinations against Monilinia fructicola was determined by determining the inhibition of growth of the halo in accordance with various general methods (ISO 6887: 2003; ISO 7218: 2007; ISO 7954: 1987).
The samples were added to the artificial medium and were mixed gently prior to the solidification of the agar solution.
A small quantity of fungal spores was placed at the centre of the potato dextrose agar (PDA) in Petri dishes at 25±1° C. for 5-6 days. At the end of the incubation, the inhibition of the halo formed was measured, compared with untreated PDA Petri dishes (control).
The results are expressed as the percentage of incidence of the infestation, and the percentage of efficacy of the product tested.
Monilinia fructicola—Strain Resistant to Pyrimethanil: […]

## Cc1cc(C)nc(Nc2ccccc2)n1 [pyrimethanil alone, 2-anilino-4,6-dimethylpyrimidine]
Geotrichum candidum
  level of Geotrichum candidum compared with control lot: same level of Geotrichum candidum as the control lot
[1]
  Efficacy (%): 45%
